Assay results from patent US20080170990A1, “Methods for Myocardial Imaging in Patients Having a History of Pulmonary Disease” (CV THERAPEUTICS, INC., priority 2006, published 2008).
Where two headings read alike, the source gives them in different places.

Assays:
anesthetized dog = experiment: Blood flow velocity in various vascular beds, intravascular Doppler (Example 4); assay type: in vivo; details: 1.0 μg/kg intravenous bolus
Description: The effects of Regadenoson were quantified as the average peak blood flow velocity (APV) using intravascular Doppler transducer tipped catheter. Heart rate (HR) and systemic arterial blood pressure (BP) were also monitored.

awake rats = experiment: Sympathoexcitation: heart rate, blood pressure and plasma catecholamines after i.v. bolus (Example 5); assay type: in vivo, rat
Experimental: CVT (0.31 μg/kg-50 μg/kg) was given as a rapid i.v. bolus to awake rats and heart rate (HR) and blood pressure (BP) were monitored. Regadenoson caused an increase in BP and systolic pressure (SP) at lower doses while at higher doses there was a decrease in BP and SP. […] The increase in HR was evident at the lowest dose of CVT at which there was no appreciable decrease in BP. ZM241385 (30 μg/kg, N=5), an A2A adenosine receptor antagonist, attenuated the decrease in BP (Regadenoson: 14±3%, ZM: 1±1%) and the increase in HR (CVT: 27±3%, ZM: 18±3%) caused by Regadenoson. Pretreatment with metoprolol (MET, 1 mg/kg, n=5), a beta-blocker, attenuated the increase in HR (CVT: 27±3%, MET: 15±2%), but had no effect on hypotension caused by Regadenoson. In the presence of hexamethonium (HEX, 10 mg/kg, n=5), a ganglionic blocker, the tachycardia was prevented (CVT: 27±3%, HEX: −1±2%), but BP was further reduced (CVT: −11±2%, HEX: −49±5%).

[1] = test system: patients undergoing a clinically indicated coronary catheterization; experiment: Dose-ranging study of coronary flow velocity, heart rate and blood pressure after IV bolus (Example 2); assay type: in vivo, human
Experimental: The study included patients undergoing a clinically indicated coronary catheterization with no more than a 70% stenosis in any coronary artery and no more than a 50% stenosis of the study vessel had CBFv determined by Doppler flow wire. Study subject were selected after measuring baseline and peak CBFv after an intracoronary (IC) injection of 18 μg of Ado. 36 subjects were identified as meeting the study criteria of having a peak to baseline CBFv ration of ≧2.5 in response to Adenosine,
Regadenoson was administered to the study subjects by IV bolus in less than 10 seconds in amounts ranging from 10 μg to 500 μg. Regadenoson is selective for the A2A adenosine receptor.
The effectiveness of both compounds was measured by monitoring coronary flow velocity. Other coronary parameters that were monitored included heart rate and blood pressure. These parameters were measured in order to evaluate the time to peak dose response, the magnitude of the dose response and the duration of the dose response. Adverse events were also monitored. Coronary blood flow velocity was measured at the LAD or LCx vessel. The velocity measurements were taken by following standard heart catheterization techniques and inserting a 0.014 inch Doppler-tipped Flowire into the LAD or LCx vessel and thereafter monitoring blood flow velocity. In addition, hemodynamic and electrocardiographic measurements were recorded continuously.
Overall, 36 human subjects (n=36) were evaluated. Of the 36, 18 were female and 18 were male. Their mean age was 53.4 and they ranged from 24-72 years in age. Of the 36 subjects evaluated, the LAD vessel of 31 subjects was monitored, and the LCx vessel of 5 subjects was monitored. The following doses (μg) of Regadenoson were given to the subjects in a single iv bolus: 10 (n=4); 30 (n=6); 100 (n=4); 300 (n=7); 400 (n=9); 500 (n=6).

[2] = test system: patients with moderate or several chronic obstructive pulmonary disease (COPD); experiment: Double-blind placebo-controlled crossover trial in chronic obstructive pulmonary disease (Example 11); assay type: in vivo, human
Experimental: Two similar randomized, double-blind, placebo (PLC)-controlled crossover trials were conducted, one in asthmatics with a positive adenosine monophosphate (AMP) challenge (a validated marker of airway inflammation) and one in patients with moderate or several chronic obstructive pulmonary disease (COPD). In both studies, short-acting bronchodilators were held prior to and for the 120 minute time frame study drug treatment during which spirometry was repeatedly assessed.

[3] = Phase 1 pharmacokinetics after single IV bolus, three-compartment model (Example 3); assay type: in vivo, human; details: for Vd: human, plasma, intravenous, read-out: Vc (central volume of distribution)
Experimental: Regadenoson was administered as an IV bolus (20 seconds) in ascending doses of […], 10, 20 and 30 μg/kg.
Plasma samples were drawn during supine phase (Days 1 and 2) at 0, 1, 2, 3, 4, 5, 7, 10, 15, 20, 30, 45 minutes after dosing and at 1, 1.5, 2, 4, 6, 8, 12 and 24 hours after dosing. Urine was collected for 24 hours for Regadenoson excretion.
A three-compartment open model was fit to the data using observed Tmax (1-4 minutes) as the duration of a zero-order infusion. Reliable parameter estimates were obtained for dose of 1-30 μg/kg. Parameters are summarized in the following (Table 2): […]

[4] = test system: subjects undergoing stress/rest MPI; experiment: Stress/rest SPECT myocardial perfusion imaging, adenosine vs Regadenoson (Example 6); assay type: in vivo, human; details: 4D MSPECT; p=n.s.
Experimental: To determine the ability of Regadenoson to produce coronary hyperemia and accurately detect CAD, 35 subjects (26 men, 9 women; 67±10 years) underwent both A and Regadenoson stress/rest MPI, with 10.0±9.1 days between studies. […] Regadenoson [400 mcg (n=18), 500 mcg (n=17)] was administered as an IV bolus immediately followed by a saline flush, and then a Tc-99m radiopharmaceutical [sestamibi (n=34), tetrofosmin (n=1)]. SPECT images were uniformly processed, intermixed with control studies (normal and fixed-only defects), and interpreted by three observers in a blinded fashion using a 17-segment model. Quantitative analysis was also performed using 4D MSPECT. In addition to three separate readings, a consensus interpretation was performed and then a direct, same-screen comparison of A and REGADENASON images undertaken to determine relative differences, using 5 regions per study.

[5] = 400 μg IV bolus, about 1 minute after dosing

SMILES: CNC(=O)c1cnn(-c2nc(N)c3ncn([C@@H]4O[C@H](CO)[C@@H](O)[C@H]4O)c3n2)c1 [Regadenoson, (1-{9-[(4S,2R,3R,5R)-3,4-dihydroxy-5-(hydroxymethyl)oxolan-2-yl]-6-aminopurin-2-yl}pyrazol-4-yl)-N-methylcarboxamide]
- time for effect on blood flow velocity to dissipate (anesthetized dog): less than ten minutes
- effect on HR (awake rats; 0.31 μg/kg-50 μg/kg rapid i.v. bolus): dose-dependent increase in HR
- BP change caused by Regadenoson (awake rats; CVT alone (hexamethonium experiment)): −11±2%
- increase in HR caused by Regadenoson (awake rats; CVT alone (printed three times: ZM, MET, HEX comparisons)): 27±3%
- decrease in BP caused by Regadenoson (awake rats; Regadenoson alone (ZM241385 experiment)): 14±3%
- maximum decrease in diastolic BP [1, 5]: 10±5 mmHg
- maximum decrease in systolic BP [1, 5]: 20±8 mmHg
- maximum increase in heart rate [1, 5]: 18±8 bpm
- tolerability ([1]; 10-500 μg IV bolus): generally well tolerated
- amount at which plateau peak flow velocity is reached ([1]; IV bolus): less than 100 μg
- lowest amount that increases peak flow velocity ([1]; IV bolus): 10 µg
- time to peak flow ([1]; all doses (10-500 μg IV bolus)): about 30 seconds
- peak effects compared with adenosine ([1]; doses above about 100 μg): equivalent to 18 μg ic adenosine
- incidence of dyspnea following REG ([2]; COPD study): 61%
- Number of patients with FEV1 decline by >20% over 120 min ([2]; COPD study N=49): 2 REG, 3 PLC
- Number of patients with FEV1 decline by >30% over 120 min ([2]; COPD study N=49): 0 REG, 1 PLC
- Number of patients with use of acute oxygen or short-acting bronchodilators ([2]; COPD study N=49): 0 REG, 0 PLC
- Number of patients with FEV1 decline by >15% over 120 min ([2]; COPD study N=49, p = 0.31): 6 REG, 3 PLC
- Number of patients with new onset wheezing ([2]; COPD study N=49, p = 0.33 vs PLC): 3 REG, 6 PLC
- Maximum decline in FEV1 ([2]; COPD study N=49, p = 0.55 vs PLC): 0.11 (0.14)L REG
- Maximum decline in oxygen saturation ([2]; COPD study N=49, p = 0.72 vs PLC): 1.21 (1.30)% REG
- K21 (rate constant for transfer from first peripheral to central compartment) ([3]; Total (all doses), N=22, mean): 0.258 min⁻¹
- K31 (rate constant for transfer from second peripheral to central compartment) ([3]; Total (all doses), N=22, mean): 0.0143 min⁻¹
- Vss (volume of distribution at steady state) ([3]; Total (all doses), N=22, mean): 75.5 L
- K21 (rate constant for transfer from first peripheral to central compartment) ([3]; dose 1 μg/kg, N=3, mean): 0.246 min⁻¹
- K31 (rate constant for transfer from second peripheral to central compartment) ([3]; dose 1 μg/kg, N=3, mean): 0.01808 min⁻¹
- K21 (rate constant for transfer from first peripheral to central compartment) ([3]; dose 3 μg/kg, N=4, mean): 0.203 min⁻¹
- K31 (rate constant for transfer from second peripheral to central compartment) ([3]; dose 3 μg/kg, N=4, mean): 0.0152 min⁻¹
- α Half-life ([3]; dose 3 μg/kg, N=4, mean): 3.11 min
- K21 (rate constant for transfer from first peripheral to central compartment) ([3]; dose 10 μg/kg, N=4, mean): 0.187 min⁻¹
- K31 (rate constant for transfer from second peripheral to central compartment) ([3]; dose 10 μg/kg, N=4, mean): 0.0108 min⁻¹
- K21 (rate constant for transfer from first peripheral to central compartment) ([3]; dose 20 μg/kg, N=8, mean): 0.387 min⁻¹
- K31 (rate constant for transfer from second peripheral to central compartment) ([3]; dose 20 μg/kg, N=8, mean): 0.0141 min⁻¹
- CL (clearance) ([3]; dose 20 μg/kg, N=8, mean (SD)): 743 (123) mL/min
- K21 (rate constant for transfer from first peripheral to central compartment) ([3]; dose 30 μg/kg, N=3, mean): 0.0948 min⁻¹
- K31 (rate constant for transfer from second peripheral to central compartment) ([3]; dose 30 μg/kg, N=3, mean): 0.0148 min⁻¹
- Vss (volume of distribution at steady state) ([3]; dose 30 μg/kg, N=3, mean): 89.6 L
- λ Half-life ([3]; dose 30 μg/kg, N=3, mean): 99.4 min
- Vd ([3]; 1 ug/kg, N=3, mean (SD)): 9.84 L
- Vd ([3]; 3 ug/kg, N=4, mean (SD)): 13.7 L
- Vd ([3]; 10 ug/kg, N=4, mean (SD)): 17.9 L
- Vd ([3]; 20 ug/kg, N=8, mean): 12.5 L
- Vd ([3]; 30 ug/kg, N=3, mean): 15.7 L
- Vd ([3]; Total (all doses), N=22, mean): 13.8 L
- summed score following stress, quantitative analysis [4]: 133.6±1.6
